Key:
[1] = tested on: SK-BR-3; experiment: Cytotoxicity against human SKBR3 cells after 72 hrs by celltiter-glo assay; assay type: functional, cell-based
[2] = target: Heat shock protein HSP 90-beta (Homo sapiens, UniProt P08238); experiment: Binding affinity to human recombinant HSP90
[3] = tested on: A549; experiment: Cytotoxicity against human A549 cells after 72 hrs by celltiter-glo assay; assay type: functional, cell-based; conditions: A549, 72 h
[4] = tested on: MCF7; experiment: Cytotoxicity against human MCF7 cells after 72 hrs by celltiter-glo assay; assay type: functional, cell-based; conditions: MCF7, 72 h
[5] = tested on: SK-OV-3; experiment: Cytotoxicity against human SKOV3 cells after 72 hrs by celltiter-glo assay; assay type: functional, cell-based; conditions: SK-OV-3, 72 h
[6] = tested on: CCRF-CEM; experiment: Cytotoxicity against human CCRF-CEM cells after 72 hrs by celltiter-96 aqueous one solution assay; assay type: functional, cell-based
[7] = tested on: CCRF-CEM; experiment: Cytotoxicity against human paclitaxel-resistant CCRF-CEM cells after 72 hrs by celltiter-96 aqueous one solution assay; assay type: functional, cell-based
[8] = Chemical stability assessed as half life at pH 7.75; assay type: physicochemical; conditions: buffer

Heat shock protein HSP 90-beta, sequence (P08238 whole entry): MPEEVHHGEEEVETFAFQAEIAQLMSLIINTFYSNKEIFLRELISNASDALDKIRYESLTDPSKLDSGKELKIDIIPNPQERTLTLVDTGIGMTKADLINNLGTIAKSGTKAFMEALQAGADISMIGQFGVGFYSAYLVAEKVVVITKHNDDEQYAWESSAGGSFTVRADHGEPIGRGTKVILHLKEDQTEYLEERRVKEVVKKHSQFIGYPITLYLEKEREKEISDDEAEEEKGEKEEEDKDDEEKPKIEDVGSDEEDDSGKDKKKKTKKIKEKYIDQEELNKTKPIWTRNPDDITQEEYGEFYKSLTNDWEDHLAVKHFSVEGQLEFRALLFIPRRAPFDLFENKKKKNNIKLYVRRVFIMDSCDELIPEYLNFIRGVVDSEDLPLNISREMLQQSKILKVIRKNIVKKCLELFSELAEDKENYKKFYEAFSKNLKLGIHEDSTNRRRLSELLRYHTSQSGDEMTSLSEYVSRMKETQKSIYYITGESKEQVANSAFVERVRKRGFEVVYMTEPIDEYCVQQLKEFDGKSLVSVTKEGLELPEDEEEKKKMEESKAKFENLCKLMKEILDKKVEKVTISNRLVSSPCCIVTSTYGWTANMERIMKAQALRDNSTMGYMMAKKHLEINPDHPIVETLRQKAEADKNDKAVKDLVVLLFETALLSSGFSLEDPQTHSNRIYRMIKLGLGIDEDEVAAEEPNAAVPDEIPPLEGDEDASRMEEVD

SMILES | IC50 ([1]; Homo sapiens, SK-BR-3, 72 h) [nM] | Kd [2] [nM] | further results
CO[C@H]1/C=C\C=C(/C)C(=O)NC2=CC(=O)C(NCCN3CCCC3)=C(C[C@@H](C)C[C@H](OC)[C@H](O)[C@@H](C)/C=C(\C)[C@@H]1OC(N)=O)C2=O (stereo in doubt) | 70 | 400 | 
CO[C@H]1[C@@H](OC)C[C@H](C)CC2=C(N)C(=O)C=C(NC(=O)/C(C)=C/C=C\[C@H](OC)[C@@H](OC(N)=O)/C(C)=C/[C@@H]1C)C2=O | 84 | 320 | IC50 [3]: 37 nM; IC50 [4]: 350 nM; IC50 [5]: 200 nM; IC50 [6]: 250 nM; IC50 [7]: 850 nM
CO[C@H]1C[C@H](C)CC2=C(NCCN(C)C)C(=O)C=C(NC(=O)/C(C)=C/C=C\[C@H](OC)[C@@H](OC(N)=O)/C(C)=C/[C@H](C)/C1=N\OCCN(C)C)C2=O (stereo in doubt) | 2500 | > 100000 | 
CO[C@H]1/C=C\C=C(/C)C(=O)NC2=CC(=O)C(N)=C(C[C@@H](C)C[C@H](OC)[C@H](O)[C@@H](C)/C=C(\C)[C@@H]1OC(N)=O)C2=O (stereo in doubt) | 33 | 100 | 
C=CCO[C@H]1[C@@H](OC)C[C@H](C)CC2=C(N3CCC3)C(=O)C=C(NC(=O)/C(C)=C/C=C\[C@H](OC)[C@@H](OC(N)=O)/C(C)=C/[C@@H]1C)C2=O | 390 | 2900 | 
COC1=C2C[C@@H](C)C[C@H](OC)[C@H](OC)[C@@H](C)/C=C(\C)[C@H](OC(N)=O)[C@@H](OC)/C=C\C=C(/C)C(=O)NC(=CC1=O)C2=O | 9.1 | 490 | 
CO/N=C1/[C@@H](OC)C[C@H](C)CC2=C(NCCN(C)C)C(=O)C=C(NC(=O)/C(C)=C/C=C\[C@H](OC)[C@@H](OC(N)=O)/C(C)=C/[C@@H]1C)C2=O (stereo in doubt) | 550 | > 100000 | 
CO[C@H]1[C@@H](OC)C[C@H](C)CC2=C(NCCN3CCC3)C(=O)C=C(NC(=O)/C(C)=C/C=C\[C@H](OC)[C@@H](OC(N)=O)/C(C)=C/[C@@H]1C)C2=O (stereo in doubt) | 130 | 1000 | IC50 [3]: 26 nM; IC50 [4]: 51 nM; IC50 [5]: 65 nM; IC50 [6]: 85 nM; IC50 [7]: 510 nM
CO[C@H]1[C@@H](OC)C[C@H](C)CC2=C(NCCN3CCCC3)C(=O)C=C(NC(=O)/C(C)=C/C=C\[C@H](OC)[C@@H](OC(N)=O)/C(C)=C/[C@@H]1C)C2=O (stereo in doubt) | 160 | 1000 | IC50 [3]: 62 nM; IC50 [4]: 76 nM; IC50 [5]: 69 nM; IC50 [6]: 160 nM; IC50 [7]: 520 nM
COC1=C2C[C@@H](C)C[C@H](OC)[C@H](OC(=O)CCN)[C@@H](C)/C=C(\C)[C@H](OC(N)=O)[C@@H](OC)/C=C\C=C(/C)C(=O)NC(=CC1=O)C2=O (stereo in doubt) | 1700 | > 25000 | half-life [8]: 200 h
CO[C@H]1C[C@H](C)CC2=C(NCCN(C)C)C(=O)C=C(NC(=O)/C(C)=C/C=C\[C@H](OC)[C@@H](OC(N)=O)/C(C)=C/[C@H](C)/C1=N\OCC(=O)O)C2=O (stereo in doubt) | 2700 | > 25000 | 
CO[C@H]1C[C@H](C)CC2=C(NCCN(C)C)C(=O)C=C(NC(=O)/C(C)=C/C=C\[C@H](OC)[C@@H](OC(N)=O)/C(C)=C/[C@H](C)/C1=N\O)C2=O (stereo in doubt) | 95 | > 10000 | 
CO[C@H]1/C=C\C=C(/C)C(=O)NC2=CC(=O)C(NCCF)=C(C[C@@H](C)C[C@H](OC)[C@H](OC(=O)CN)[C@@H](C)/C=C(\C)[C@@H]1OC(N)=O)C2=O (stereo in doubt) | 110 | > 25000 | 
CO[C@H]1C[C@H](C)CC2=C(N3CCC3)C(=O)C=C(NC(=O)/C(C)=C/C=C\[C@H](OC)[C@@H](OC(N)=O)/C(C)=C/[C@H](C)C1=O)C2=O (stereo in doubt) | 260 | 6400 | 
CO[C@H]1[C@@H](OC)C[C@H](C)CC2=C(NCCc3c[nH]cn3)C(=O)C=C(NC(=O)/C(C)=C/C=C\[C@H](OC)[C@@H](OC(N)=O)/C(C)=C/[C@@H]1C)C2=O (stereo in doubt) | 60 | 2000 | IC50 [3]: 420 nM; IC50 [4]: 160 nM; IC50 [5]: 320 nM; IC50 [6]: 510 nM; IC50 [7]: 3000 nM
C=CCNC1=C2C[C@@H](C)C[C@H](OC)[C@H](O)[C@@H](C)/C=C(\C)[C@H](OC(N)=O)[C@@H](OC)/C=C\C=C(/C)C(=O)NC(=CC1=O)C2=O [TANESPIMYCIN] | 33 |  | 
CO[C@H]1C[C@H](C)CC2=C(NCCF)C(=O)C=C(NC(=O)/C(C)=C/C=C\[C@H](OC)[C@@H](OC(N)=O)/C(C)=C/[C@H](C)C1=O)C2=O (stereo in doubt) | 170 | 2600 | 
CO[C@H]1/C=C\C=C(/C)C(=O)NC2=CC(=O)C(NCCN3CCC3)=C(C[C@@H](C)C[C@H](OC)[C@H](O)[C@@H](C)/C=C(\C)[C@@H]1OC(N)=O)C2=O (stereo in doubt) | 26 | 400 | 

SMILES | IC50 ([1]; Homo sapiens, SK-BR-3, 72 h) [nM] | Kd [2] [nM] | further results
CNCCNC1=C2C[C@@H](C)C[C@H](OC)[C@H](OC(=O)CN)[C@@H](C)/C=C(\C)[C@H](OC(N)=O)[C@@H](OC)/C=C\C=C(/C)C(=O)NC(=CC1=O)C2=O (stereo in doubt) | 340 | > 25000 | half-life [8]: 74 h
CO[C@H]1C[C@H](C)CC2=C(N3CCC3)C(=O)C=C(NC(=O)/C(C)=C/C=C\[C@H](OC)[C@@H](OC(N)=O)/C(C)=C/[C@H](C)/C1=N\O)C2=O | 310 | > 25000 | 
CO[C@H]1/C=C\C=C(/C)C(=O)NC2=CC(=O)C(NCCN(C)C)=C(C[C@@H](C)C[C@H](OC)[C@H](O)[C@@H](C)/C=C(\C)[C@@H]1OC(N)=O)C2=O (stereo in doubt) [ALVESPIMYCIN] | 24 |  | IC50 [3]: 68 nM; IC50 [4]: 230 nM; IC50 [5]: 220 nM; IC50 [6]: 540 nM; IC50 [7]: 2500 nM
C=CCO/N=C1/[C@@H](OC)C[C@H](C)CC2=C(NCCN(C)C)C(=O)C=C(NC(=O)/C(C)=C/C=C\[C@H](OC)[C@@H](OC(N)=O)/C(C)=C/[C@@H]1C)C2=O (stereo in doubt) | 400 | > 100000 | 
CO[C@H]1/C=C\C=C(/C)C(=O)NC2=CC(=O)C(NCCF)=C(C[C@@H](C)C[C@H](OC)[C@H](O)[C@@H](C)/C=C(\C)[C@@H]1OC(N)=O)C2=O (stereo in doubt) | 17 | 800 | 
CO[C@H]1/C=C\C=C(/C)C(=O)NC2=CC(=O)C(NCCN(C)C)=C(C[C@@H](C)C[C@H](OC)[C@H](OC(=O)NN)[C@@H](C)/C=C(\C)[C@@H]1OC(N)=O)C2=O | > 1000 |  | IC50 [2]: 5 nM
COC1=C2C[C@@H](C)C[C@H](OC)[C@H](O)[C@@H](C)/C=C(\C)[C@H](OC(N)=O)[C@@H](OC)/C=C\C=C(/C)C(=O)NC(=CC1=O)C2=O [GELDANAMYCIN] |  |  | IC50 ([1]; sk-br-3): 41 nM
CO[C@H]1[C@@H](OC)C[C@H](C)CC2=C(NCCF)C(=O)C=C(NC(=O)/C(C)=C/C=C\[C@H](OC)[C@@H](OC(N)=O)/C(C)=C/[C@@H]1C)C2=O (stereo in doubt) | 130 | 2300 | IC50 [3]: 67 nM; IC50 [4]: 58 nM; IC50 [5]: 460 nM; IC50 [6]: 960 nM; IC50 [7]: 2700 nM
C=CCNC1=C2C[C@@H](C)C[C@H](OC)C(=O)[C@@H](C)/C=C(\C)[C@H](OC(N)=O)[C@@H](OC)/C=C\C=C(/C)C(=O)NC(=CC1=O)C2=O (stereo in doubt) | 450 | 3300 | 
CO[C@H]1[C@@H](OC)C[C@H](C)CC2=C(N3CCC3)C(=O)C=C(NC(=O)/C(C)=C/C=C\[C@H](OC)[C@@H](OC(N)=O)/C(C)=C/[C@@H]1C)C2=O (stereo in doubt) | 24 | 4000 | IC50 [3]: 29 nM; IC50 [4]: 63 nM; IC50 [5]: 110 nM; IC50 [6]: 420 nM; IC50 [7]: 2500 nM
C=CCNC1=C2C[C@@H](C)C[C@H](OC)/C(=N/O)[C@@H](C)/C=C(\C)[C@H](OC(N)=O)[C@@H](OC)/C=C\C=C(/C)C(=O)NC(=CC1=O)C2=O | 350 | > 10000 | 
C=CCNC1=C2C[C@@H](C)C[C@H](OC)[C@H](OC)[C@@H](C)/C=C(\C)[C@H](OC(N)=O)[C@@H](OC)/C=C\C=C(/C)C(=O)NC(=CC1=O)C2=O (stereo in doubt) | 280 | 2800 | IC50 [3]: 360 nM; IC50 [4]: 760 nM; IC50 [5]: 1300 nM; IC50 [6]: 2500 nM; IC50 [7]: 3500 nM
CO[C@H]1/C=C\C=C(/C)C(=O)NC2=CC(=O)C(N3CCC3)=C(C[C@@H](C)C[C@H](OC)[C@H](O)[C@@H](C)/C=C(\C)[C@@H]1OC(N)=O)C2=O (stereo in doubt) | 24 | 1400 | 
CO[C@H]1C[C@H](C)CC2=C(NCCN(C)C)C(=O)C=C(NC(=O)/C(C)=C/C=C\[C@H](OC)[C@@H](OC(N)=O)/C(C)=C/[C@H](C)/C1=N\OCc1ccccc1)C2=O (stereo in doubt) | 480 | > 100000 | 
CO[C@H]1/C=C\C=C(/C)C(=O)NC2=CC(=O)C(NCCc3c[nH]cn3)=C(C[C@@H](C)C[C@H](OC)[C@H](O)[C@@H](C)/C=C(\C)[C@@H]1OC(N)=O)C2=O (stereo in doubt) | 98 | 800 | 
CO[C@H]1C[C@H](C)CC2=C(NCCN(C)C)C(=O)C=C(NC(=O)/C(C)=C/C=C\[C@H](OC)[C@@H](OC(N)=O)/C(C)=C/[C@H](C)C1=O)C2=O (stereo in doubt) | 100 | 1800 | 
CO[C@H]1C[C@H](C)CC2=C(NCCF)C(=O)C=C(NC(=O)/C(C)=C/C=C\[C@H](OC)[C@@H](OC(N)=O)/C(C)=C/[C@H](C)/C1=N\O)C2=O | > 1000 | > 25000 | 
CO[C@H]1[C@@H](OC)C[C@H](C)CC2=C(NCCN(C)C)C(=O)C=C(NC(=O)/C(C)=C/C=C\[C@H](OC)[C@@H](OC(N)=O)/C(C)=C/[C@@H]1C)C2=O | 11 | 800 | IC50 [3]: 23 nM; IC50 [4]: 50 nM; IC50 [5]: 43 nM; IC50 [6]: 58 nM; IC50 [7]: 390 nM
